Measurements published in patent US20230265391A1, “METHODS AND COMPOSITIONS FOR MAKING AND USING ENDOCARDIAL CELLS” (University Health Network, priority 2020, published 2023).

Tests used:
Format in all cases: cell-based, human
[1] = test system: NKX2-5+ CD31+ cells; assay: Generation of NKX2-5+ CD31+ cells from hPSC-derived cardiogenic mesoderm (flow cytometry)
Protocol: To generate endocardial/endothelial cells, hPSCs were differentiated to cardiogenic mesoderm using the protocol described above. At day 3, the EBs were dissociated with TrypLE for 3 min at 37° C. and the cells plated in 96-well flat bottom microplates (Falcon) coated with Matrigel (25% v/v, Corning) at a density of 10e5 cells per well. The monolayers were cultured in StemPro-34 supplemented with penicillin/streptomycin (1%, ThermoFisher), L-glutamine (2 mM, ThermoFisher), ascorbic acid (50 μg/ml, Sigma), monothioglycerol (50 μg/ml, Sigma), transferrin (150 μg/ml, ROCHE) and rhbFGF (50 ng/ml, R&D). For endocardial induction, rhBMP10 (10 ng/ml) was added to the media from day 5 to day 9. For generation of control endothelial cells, VEGFA (100 ng/mL, R&D) was added to the differentiation media from day 3 to day 9. The cultures were incubated in a low oxygen environment (5% CO2, 5%O2, 90% N2) and the media was changed every 2 days. At day 9, HES3-NKX2-5eGFP/w-derived endocardial/endothelial cells were analyzed and isolated based on the expression of NKX2-5:GFP and CD31. The endocardial cells generated from the non-transgenic hPSC lines were analyzed and isolated as CD31+ populations. For dissociation, the monolayers were incubated in Collagenase type 2 (1 mg/ml, Worthington) in HANKs buffer at 37° C. for one hour.
Day 3 EBs were dissociated with TrypLE for 3 min at 37° C. Day 9-23 EBs or mixed populations of cardiomyocytes and endocardial/endothelial cells were dissociated by incubation in Collagenase type 2 (1 mg/ml, Worthington) in HANKS buffer at 37° C. for one hour followed by TrypLE treatment (5 min at 37° C.). The following antibodies were used for staining: anti-SIRPA-PeCy7 (Biolegend, 1:1000), anti-CD31-PE (BD Pharmingen, 1:100), anti-CD31-FITC (BD Pharmingen, 1:100), anti-CD31-AF647 (BD Pharmingen, 1:100), anti-CD90-APC (BD Pharmingen, 1:1000), anti-PDGFRB-BV421 (BD Pharmingen, 1:100), anti-CD105-APC (eBioscience, 1:200), anti-CD56-APC (BD Pharmingen, 1:100), anti-PDGFRA-PE (BD Pharmingen, […]), anti-CD36-APC (Biolegend, 1:100), anti-LDLR-BV421 (Biolegend, 1:100), anti-cardiac isoform of CTNT (ThermoFisher Scientific, 1:2000), or anti-myosin light chain 2 (Abcam, 1:1000), anti-ANP (Abcam, 1:500). For unconjugated primary antibodies, the following secondary antibodies were used for detection: goat anti-mouse IgG-APC (BD Pharmigen, 1:250), or donkey anti-rabbit IgG-AF488 (ThermoFisher Scientific, 1:1000). Detailed antibody information is described in the Key Resources Table. For cell-surface marker analyses, cells were stained for 30 min at 4° C. in FACS buffer consisting of PBS with 5% fetal calf serum (FCS) (Wisent) and 0.02% sodium azide. For intracellular staining, cells were fixed for 15 min at 4° C. with 4% PFA in PBS followed by permeabilization using 90% methanol for 20 min at 4° C. Cells were washed with PBS containing 0.5% BSA (Sigma) and stained with unconjugated primary antibodies in FACS buffer overnight at 4° C. Stained cells were washed with PBS with 0.5% BSA and stained with secondary antibodies in FACS buffer for 1 h at 4° C. Stained cells were analyzed using an LSR II Flow cytometer (BD). For cell sorting, cells were stained, washed and kept in IMDM with 0.2% KnockOut™ serum replacement and sorted using either Influx (BD), FACSAriaII (BD), MoFlo-XDP (BD) of FACSAria Fusion (BD) cells sorter at the Sickids/UHN flow cytometry facility. Data were analyzed using FlowJo software (Tree Star).
Initial experiments were set up to identify the signaling pathways that would promote the generation of a NKX2-5+ CD31+ cell that we propose represents the earliest stage of human endocardial development. The transgenic HES3-NKX2-5eGFP/w reporter line (Elliott et al., 2011, Nat. Methods, 8(12):1037-40) was used to allow for the identification of NKX2-5+ cells by flow cytometry. […]

[2] = test system: NKX2-5+ CD31+ endocardial-like cells and SIRPA+ cardiomyocytes; assay: Co-culture of NKX2-5+ CD31+ endocardial-like cells (HES3-NKX2-5eGFP/w) with SIRPA+ cardiomyocytes
Protocol: (§1) For culture in the absence of cardiomyocytes, the endocardial or control endothelial cells (HES3-NKX2-5eGFP/w line) isolated at day 9 of differentiation were plated in a 96-well flat bottom microplate (Falcon) coated with Matrigel (25% v/v, Corning) at a density 2.5×10e4 cells per well in StemPro-34 supplemented with penicillin/streptomycin (1%, ThermoFisher), L-glutamine (2 mM, ThermoFisher), ascorbic acid (50 μg/ml, Sigma), monothioglycerol (50 μg/ml, Sigma), rhVEGFA (100 ng/ml, R&D) with or without rhBMP10 (10 ng/ml) or rhBMP4 (10 ng/ml). For co-culture of the two cell types, 5×10e4 hPSC-derived SIRPA+ cardiomyocytes (day 9) were mixed together with either 2.5×10e4 HES3-NKX2-5eGFP/w- or 5×10e4 HES2:RFP-derived endocardial or endothelial cells and cultured for 8 days in 96-well flat bottom microplates (Falcon) coated with Matrigel (25% v/v, Corning) in StemPro-34 supplemented with penicillin/streptomycin (1%, ThermoFisher), L-glutamine (2 mM, ThermoFisher), ascorbic acid (50 μg/ml, Sigma), monothioglycerol (50 μg/ml, Sigma) and rhVEGFA (100 ng/ml, R&D). For inhibition of the NRG-ERBB pathway lapatinib (10 μM, LC labs) was added to the media. Control cardiomyocytes were cultured as aggregates as described above in the same media with or without NRG1 (50 ng/ml). The cultures were incubated in a normoxic environment (5% CO2) and the media was changed every 2 days. […]

[3] = test system: RFP+ CD31+ endocardial-like cells and SIRPA+ cardiomyocytes; assay: Co-culture of HES2-RFP CD31+ endocardial-like cells with HES2-GFP SIRPA+ cardiomyocytes; conditions: lapatinib 10 μM, 8 days co-culture, VEGFA 100 ng/ml
Protocol: as §1

[4] = test system: NKX2-5+ CD31+ cells; assay: Generation of NKX2-5+ CD31+ cells from hPSC-derived cardiogenic mesoderm (flow cytometry); conditions: BMP alone (10 ng/ml) in the absence of bFGF; day 9
[5] = test system: NKX2-5+ CD31+ endocardial-like cells; assay: 8-day culture of sorted day 9 NKX2-5+ CD31+ endocardial-like or control endothelial cells with VEGFA and BMP
Protocol: For culture in the absence of cardiomyocytes, the endocardial or control endothelial cells (HES3-NKX2-5eGFP/w line) isolated at day 9 of differentiation were plated in a 96-well flat bottom microplate (Falcon) coated with Matrigel (25% v/v, Corning) at a density 2.5×10e4 cells per well in StemPro-34 supplemented with penicillin/streptomycin (1%, ThermoFisher), L-glutamine (2 mM, ThermoFisher), ascorbic acid (50 μg/ml, Sigma), monothioglycerol (50 μg/ml, Sigma), rhVEGFA (100 ng/ml, R&D) with or without rhBMP10 (10 ng/ml) or rhBMP4 (10 ng/ml). For co-culture of the two cell types, 5×10e4 hPSC-derived SIRPA+ cardiomyocytes (day 9) were mixed together with either 2.5×10e4 HES3-NKX2-5eGFP/w- or 5×10e4 HES2:RFP-derived endocardial or endothelial cells and cultured for 8 days in 96-well flat bottom microplates (Falcon) coated with Matrigel (25% v/v, Corning) in StemPro-34 supplemented with penicillin/streptomycin (1%, ThermoFisher), L-glutamine (2 mM, ThermoFisher), ascorbic acid (50 μg/ml, Sigma), monothioglycerol (50 μg/ml, Sigma) and rhVEGFA (100 ng/ml, R&D). For inhibition of the NRG-ERBB pathway lapatinib (10 μM, LC labs) was added to the media. Control cardiomyocytes were cultured as aggregates as described above in the same media with or without NRG1 (50 ng/ml). The cultures were incubated in a normoxic environment (5% CO2) and the media was changed every 2 days.
To further investigate differences between these pathway agonists, BMP10-induced NKX2-5+ CD31+ cells were cultured in the presence of different concentrations of either BMP4 or BMP10 for 8 days. VEGFA was added to maintain the endothelial phenotype of the cells during this culture period.

Cc1c[nH]c(-c2cnc(NCCNc3ccc(C#N)cn3)nc2-c2ccc(Cl)cc2Cl)n1 [CHIR99021, reference compound]
total number of NKX2-5+ CD31+ cells produced ([1]; 1 μM CHIR99021 for 2, 4 or 6 days from day 3, day 9): did not impact
frequency of NKX2-5+ CD31+ cells ([1]; 1 μM CHIR99021 for 6 days from day 3, day 9): decrease

Cc1ccc2nc(NC(=O)CSc3nc4c(c(=O)n3-c3ccccc3)SCC4)sc2c1 [IWP2, reference compound]
total number of NKX2-5+ CD31+ cells ([1]; IWP2 added for 4 or 6 days from day 3, day 9): reduced
frequency of NKX2-5+ CD31+ cells generated ([1]; Wnt inhibition, 2 μM IWP2 for 2, 4 or 6 days from day 3, day 9 read-out): significant reduction

c1ccc2c(-c3cnn4cc(-c5ccc(N6CCNCC6)cc5)cnc34)ccnc2c1 [LDN193189]
NKX2-5 expression in endocardial cells ([2]; cells isolated from co-cultures and cells treated with BMP10, 8 days, different concentrations of LDN193189): partial downregulation

CS(=O)(=O)CCNCc1ccc(-c2ccc3ncnc(Nc4ccc(OCc5cccc(F)c5)c(Cl)c4)c3c2)o1 [lapatinib]
induction of the trabecular fate by NKX2-5+ CD31+ endocardial-like cells ([2]; lapatinib 10 μM, 8 days co-culture, VEGFA 100 ng/ml): inhibited
induction of trabecular myocardium markers by RFP+ CD31+ endocardial-like cells [3]: inhibited

BMP10: Recombinant human BMP10 (R&D)
populations containing CD31+ cells [4]: None
proportion of NKX2-5+ CD31+ cells generated ([1]; BMP 10 ng/ml paired with exogenous bFGF, day 9): significantly increased
NRG1 expression in induced NKX2-5+ CD31+ population (RT-qPCR) ([1]; BMP10-induced versus BMP4-induced cells): higher levels
fraction of CD105+ cells ([1]; BMP10-induced versus BMP4-induced or control endothelial populations): much larger fraction
total number of NKX2-5+ CD31+ cells at days 8 and 9 ([1]; BMP10-induced versus BMP4-treated populations): significantly higher
day of emergence of NKX2-5+ CD31+ cells ([1]; BMP agonist with bFGF, populations persisted to day 12): 8 days
concentration inducing the highest frequency and number of NKX2-5+ CD31+ cells ([1]; days 5-9, in presence of bFGF 50 ng/ml): 10 ng/mL
NRG1 levels in cultured NKX2-5+ CD31+ cells ([5]; 8 days, BMP10 10 ng/ml versus BMP4 10 ng/ml, VEGFA 100 ng/ml): sustained higher levels
maintaining the NKX2-5+ CD31+ cell phenotype ([5]; 8 days, VEGFA 100 ng/ml, all concentrations of agonist tested): more effective than BMP4
NRG1 expression in control endothelial population ([5]; BMP10 added during 8-day culture): did not lead to the upregulation
